Results as given in patent publication US20200009110A1, “METHOD FOR TREATING AN ALLERGIC DISEASE” (Arjil Biotech Holding Company Limited, priority 2018, published 2020).
Entries after “also recorded” stand apart in the source; their conditions may differ.

Assays:
[1] = tested on: IL-1β expression in PMA-activated THP-1 cells; test: PMA-induced IL-1β expression in THP-1 cells (Q-PCR, immunoblotting); type: cell-based; conditions: for IL-1β mRNA expression, treatment after activation: PMA for 24 h, followed by treatment for another 24 h; for IL-1β mRNA and protein expression, pretreatment: pretreated 0.5 h, followed by PMA induction for 48 h
Method: Q-PCR analysis (left) and immunoblotting (right) for IL-1β mRNA and protein expression in THP-1 cells pretreated with AR001DS1 or AR001DS2 for 0.5 h, followed by PMA induction for 48 h.
Q-PCR analysis for IL-1β mRNA expression in THP-1 cells stimulated with PMA for 24 h, followed by treatment with or without AR001DS1 or AR001DS2 for another 24 h.
Because AR100 was composed of AR001DS1 and AR001DS2, THP-1 cells were independently pre-treated with the two components, followed by PMA activation.

[2] = tested on: BALB/c mice with Con A-induced hepatitis; test: Con A-induced acute (autoimmune) hepatitis animal experiment; type: in vivo
From the text: Concanavalin A (Con A) and dexamethasone (Dex) were purchased from Sigma-Aldrich (USA). ProcartaPlex™ Immunoassays kit was purchased from Corning Inc. (USA). GOP and GPT Fuji Dri-Chem slides were purchased from Winning Medical Inc. (Taiwan).
Male BALB/c mice (7-9 weeks old) were purchased from BioLASCO Taiwan Co., Ltd or National Laboratory Animal Center (NLAC, Taiwan). Animals were housed five per cage with food and water provided ad libitum throughout the experiments. Room temperature was maintained at 23±2° C. with an alternating 12 h light-dark cycle. Animals were acclimatized for one week to minimize the effect of stress before the experiments. All experimental protocols involving animals and their care were approved by the Institutional Animal Care and Use Committee (IACUC) in ITRI (ITRI-IACUC-2018-041 and ITRI-IACUC-2018-050; accredited by AAALAC) and were carried out according to the regulations of the Council of Agriculture, Taiwan.
Con A was dissolved in pyrogen-free saline at a concentration of 3 mg/ml and intravenously injected at a dose of 15 mg/kg or 20 mg/kg of body weight to induce hepatitis. AR100DS1 and Dex were orally administered 30 min before and then 4 h and 8 h after Con A treatment. Blood and liver tissues were collected 24 h after Con A treatment. Serum were stored at −80° C. until analysis.
To assess the level of hepatocellular injury after Con A treatment, serum GPT and GOT levels were measured by Fuji Dri-Chem slides (Fuji, Japan).
The serum of the same group were pooled for cytokine assay. Cytokine levels were measured by ProcartaPlex™ Immunoassays kit according to manufacturer's instructions.
Liver tissues were fixed in 10% phosphate-buffered formaldehyde, embedded in paraffin, and stained with hematoxylin and eosin (H&E) in order to confirm tissue lesions. Tissue lesions were examined microscopically by a veterinary pathologist at BioLASCO Taiwan Co., Ltd. The criteria of severity grading system for all microscopic lesions were graded from 0 to 4 as follows: 0=none; 1=individual cell necrosis; 2=≤30% lobular necrosis; 3=≤60% lobular necrosis; 4=22 60% lobular necrosis.
Data are presented as mean±SEM. In this study, Student's t-test was used to analyze the differences between drug-and vehicle-treated groups. The difference is regarded statistically significant when p value is less than 0.05.
Autoimmune hepatitis (AIH) is a complex disease which is characterized by hepatocellular inflammation, necrosis, and a tendency to cirrhosis. The plant lectin concanavalin A (Con A)-induced acute hepatitis in BALB/c mice is a common animal model for AIH and we performed this model to evaluate the anti-hepatitis effects of AR001DS1. Dexamethasone (Dex), one of the steroids-based standard treatments of AIH, was used as a positive control.

[3] = tested on: TNF-α secretion in DCs from C57BL/6 mice; test: ELISA assay for TNF-α secretion by LPS-stimulated dendritic cells; type: cell-based; conditions: AR001DS1 12.5, 25, 50 and 100 μg/ml
Method: DCs were isolated from C57BL/6 mice and incubated at 37° C. for 7 days. Then DCs were plated in a 24-well plate and cultured at 37° C. overnight in a 5% CO2 atmosphere. DCs were treated with AR001DS1 (12.5, 25, 50 and 100 μg/ml) for 1 h, and then stimulated with lipopolysaccharide (LPS) for 4 h. The supernatants were collected and TNF-α secretion in culture supernatants was quantitated using an ELISA assay.

[4] = tested on: RBL-2H3 cells; test: β-Hexosaminidase secretion assay (mast cell degranulation); type: cell-based; conditions: 12.5, 25, 50 and 100 μg/ml, anti-DNP IgE-sensitized, DNP-BSA stimulated
Method: RBL-2H3 cells were plated in a 24-well plate and then sensitized with anti-dinitrophenyl (DNP)-IgE overnight at 37° C. in a 5% CO2 atmosphere. After washing, the cells were treated with AR001DS1 (12.5, 25, 50 and 100 μg/ml) at 37° C. for 30 min, and then stimulated with DNP-bovine serum albumin (BSA) at 37° C. for 30 min to induce degranulation. The supernatant was transferred to a 96-well microplate and incubated for 2 h with equal volume of 5 mM 4-nitrophenyl N-acetyl-b-glucosaminide in 0.1M citrate buffer (pH 4.5). The reaction was terminated by adding […] of stop buffer (0.05 M sodium carbonate, pH 10), and OD at 405 nm was determined using an ELISA plate reader.

[5] = tested on: animal model of gout arthritis; test: Animal model of gout arthritis; conditions: in vivo
[6] = tested on: PMA-induced cytokines in THP-1 cells; test: Bio-plex human 27-plex cytokine assay in PMA treated THP-1 cells; type: cell-based; conditions: 10 μg/ml for 0.5 hr, then PMA 10 ng/ml for 24 hr
From the text: In addition to IL-1β, several cytokines participated in inflammatory responses. To identify cytokine networks affected by AR001DS1, we performed Bio-plex analysis to monitor the effect of AR001DS1 treatment on the expression of human 27 cytokines in PMA treated THP-1 cells.

C=CC(OC(C)=O)c1ccc(OC(C)=O)cc1 (stereo not drawn) [AR001DS2, 1′-acetoxychavicol acetate]
IL-1β mRNA expression, treatment after activation [1]: did not suppressed | IL-1β mRNA and protein expression, pretreatment [1]: blocked the expression of IL-1β; also recorded: inhibits PMA-induced IL-1β expression

C[C@@H]1C[C@H]2[C@@H]3CCC4=CC(=O)C=C[C@]4(C)[C@@]3(F)[C@@H](O)C[C@]2(C)[C@@]1(O)C(=O)CO [Dex, dexamethasone]
serum GPT ([2]; 15 mg/kg Con A, oral, Con A alone 1437±398): 898±515 U/L | serum GOT ([2]; 15 mg/kg Con A, oral, Con A alone 1450±433): 809±339 U/L | liver necrosis histopathological score (0-4) ([2]; 15 mg/kg Con A, Con A alone 2.2±0.2): 1.6±0.6 | liver necrosis histopathological score (0-4) ([2]; 20 mg/kg Con A): 2.6±0.2 | serum GPT ([2]; 20 mg/kg Con A, oral): 1940±403 U/L | serum GOT ([2]; 20 mg/kg Con A, oral, Con A alone 2249±549): 1261±282 U/L

O=c1c(O)c(-c2ccc(O)c(O)c2)oc2cc(O)cc(O)c12 [quercetin, reference compound]
secretion of TNF-α [3]: effectively reduced the secretion of TNF-α

C=C1C(=O)OC2/C=C(\C)CC3C=C(CC/C=C(\C)CCC12)C(=O)O3 (stereo not drawn) [AR001DS1, ovatodiolide]
secretion of β-hexosaminidase (degranulation) [4]: significantly inhibited; also recorded: suppress mast cell degranulation in a dose-dependent manner | effect on gout arthritis [5]: therapeutic effects | IL-1β mRNA expression, treatment after activation [1]: inhibits PMA-induced IL-1β expression | IL-1β mRNA expression, treatment after activation ([1]; listed as AR100DS1): attenuated the expression of IL-1β | IL-1β mRNA and protein expression, pretreatment [1]: blocked the expression of IL-1β; also recorded: inhibits PMA-induced IL-1β expression | liver necrosis histopathological score (0-4) ([2]; 50 mg/kg oral, 15 mg/kg Con A, vehicle 1.4±0.2): 0.2±0.2 | serum GPT ([2]; 50 mg/kg oral, 15 mg/kg Con A, vehicle 368±107, p<0.05): 109±25 U/L | serum GOT ([2]; 50 mg/kg oral, 15 mg/kg Con A, vehicle 410±56): 261±45 U/L | secretion of TNF-α [3]: better inhibitory effect on the secretion of TNF-α in LPS-stimulated DCs than quercetin; also recorded: suppress TNF-α secretion by dendritic cells (DCs) in a dose-dependent manner | IL-1β expression (Bio-plex) [6]: attenuated its expression | MIP-α and -β expression (Bio-plex) [6]: blocked their expressions | induction of IL-8, TNF-α and RANTES (Bio-plex) [6]: inhibited
